In publication PMC5564600 (Oncotarget, 2017) one finds remaining activity data, which are given here for 4 molecules.

What all share (assay): biochemical
Common to all, as to type: binding

Experiment [1] addresses T1, panel of 442 kinases (Homo sapiens, UniProt P15056).
T1 construct: purchased Ambit Biosciences (scanMAXX KINOMEscan)
Conditions: BRAF; for remaining activity at 1 µM: read-out: % of control at 1 µM.

The target of experiment [2] is T2, panel of 442 kinases (Homo sapiens, UniProt Q9P286).
T2 construct: purchased Ambit Biosciences (scanMAXX KINOMEscan)
T2 sequence (Q9P286 whole entry): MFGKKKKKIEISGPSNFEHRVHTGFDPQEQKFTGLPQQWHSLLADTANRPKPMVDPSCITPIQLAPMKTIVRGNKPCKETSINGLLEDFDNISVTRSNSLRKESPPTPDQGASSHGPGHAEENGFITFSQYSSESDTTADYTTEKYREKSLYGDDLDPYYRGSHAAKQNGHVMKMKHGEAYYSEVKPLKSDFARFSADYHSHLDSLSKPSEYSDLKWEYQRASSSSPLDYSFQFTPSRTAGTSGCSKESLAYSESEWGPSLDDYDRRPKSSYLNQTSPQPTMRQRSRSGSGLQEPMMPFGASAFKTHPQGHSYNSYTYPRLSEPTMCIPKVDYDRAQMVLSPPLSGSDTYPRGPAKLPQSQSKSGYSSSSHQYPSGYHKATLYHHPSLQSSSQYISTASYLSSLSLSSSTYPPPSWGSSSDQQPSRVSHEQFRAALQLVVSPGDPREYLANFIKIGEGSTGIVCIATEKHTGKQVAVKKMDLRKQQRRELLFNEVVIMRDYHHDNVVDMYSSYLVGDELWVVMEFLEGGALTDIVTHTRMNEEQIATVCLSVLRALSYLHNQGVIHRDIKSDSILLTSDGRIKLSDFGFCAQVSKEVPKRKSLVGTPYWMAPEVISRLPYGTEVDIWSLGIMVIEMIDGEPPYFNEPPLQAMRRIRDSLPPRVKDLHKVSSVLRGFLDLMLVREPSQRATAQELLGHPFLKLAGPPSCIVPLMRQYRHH
Conditions: kinase PAK7; for remaining activity at 1 µM: read-out: % of control at 1 µM.

For experiment [3], the target named is T3, panel of 442 kinases (Homo sapiens, UniProt Q9UQ88).
T3 construct: purchased Ambit Biosciences (scanMAXX KINOMEscan)
T3 sequence (Q9UQ88 1-783): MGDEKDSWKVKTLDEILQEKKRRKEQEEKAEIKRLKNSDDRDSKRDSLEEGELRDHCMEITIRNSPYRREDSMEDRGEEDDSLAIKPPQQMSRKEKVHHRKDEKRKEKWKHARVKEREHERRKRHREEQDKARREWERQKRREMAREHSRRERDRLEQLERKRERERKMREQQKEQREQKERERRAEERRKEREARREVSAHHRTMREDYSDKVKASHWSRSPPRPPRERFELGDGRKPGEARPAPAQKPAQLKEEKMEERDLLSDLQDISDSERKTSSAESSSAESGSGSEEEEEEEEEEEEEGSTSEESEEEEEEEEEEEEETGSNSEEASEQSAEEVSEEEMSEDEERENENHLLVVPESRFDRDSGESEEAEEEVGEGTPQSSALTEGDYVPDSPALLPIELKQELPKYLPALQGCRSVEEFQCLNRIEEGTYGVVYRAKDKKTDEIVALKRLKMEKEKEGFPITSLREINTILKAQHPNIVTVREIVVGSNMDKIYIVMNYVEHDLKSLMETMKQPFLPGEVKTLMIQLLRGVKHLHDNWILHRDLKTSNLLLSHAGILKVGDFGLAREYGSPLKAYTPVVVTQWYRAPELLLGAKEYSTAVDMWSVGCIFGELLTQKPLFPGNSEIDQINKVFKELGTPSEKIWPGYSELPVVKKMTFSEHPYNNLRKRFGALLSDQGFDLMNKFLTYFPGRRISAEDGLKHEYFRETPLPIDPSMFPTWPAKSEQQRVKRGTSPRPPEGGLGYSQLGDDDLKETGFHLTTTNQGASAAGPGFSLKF
Conditions: CDC2L2; for remaining activity at 1 µM: read-out: % of control at 1 µM.

The target of experiment [4] is T4, panel of 442 kinases (Homo sapiens, UniProt P16234).
T4 construct: purchased Ambit Biosciences (scanMAXX KINOMEscan)
Conditions: kinase PDGFRA; for remaining activity at 1 µM: read-out: % of control at 1 µM.

Experiment [5] has as its target T5, panel of 442 kinases (Homo sapiens, UniProt Q9HCP0).
T5 construct: purchased Ambit Biosciences (scanMAXX KINOMEscan)
Conditions: CSNK1G1; for remaining activity at 1 µM: read-out: % of control at 1 µM.

The target of experiment [6] is T6, panel of 442 kinases (Homo sapiens, UniProt P53778).
T6 construct: purchased Ambit Biosciences (scanMAXX KINOMEscan)
T6 sequence (P53778 1-367): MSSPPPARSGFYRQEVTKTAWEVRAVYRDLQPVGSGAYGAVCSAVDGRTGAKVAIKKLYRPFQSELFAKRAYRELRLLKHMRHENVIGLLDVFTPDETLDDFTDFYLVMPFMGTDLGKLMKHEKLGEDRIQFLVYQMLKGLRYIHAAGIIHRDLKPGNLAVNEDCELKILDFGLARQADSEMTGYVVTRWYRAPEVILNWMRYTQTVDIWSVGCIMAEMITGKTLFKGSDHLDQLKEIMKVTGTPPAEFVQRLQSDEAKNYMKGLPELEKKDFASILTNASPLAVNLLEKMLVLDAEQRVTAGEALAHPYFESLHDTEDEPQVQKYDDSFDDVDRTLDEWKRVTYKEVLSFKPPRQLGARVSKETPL
Conditions: kinase p38-gamma; for remaining activity at 1 µM: read-out: % of control at 1 µM.

Experiment [7] concerns the target T7, panel of 442 kinases (Homo sapiens, UniProt P78356).
T7 construct: purchased Ambit Biosciences (scanMAXX KINOMEscan)
T7 sequence (P78356 1-416): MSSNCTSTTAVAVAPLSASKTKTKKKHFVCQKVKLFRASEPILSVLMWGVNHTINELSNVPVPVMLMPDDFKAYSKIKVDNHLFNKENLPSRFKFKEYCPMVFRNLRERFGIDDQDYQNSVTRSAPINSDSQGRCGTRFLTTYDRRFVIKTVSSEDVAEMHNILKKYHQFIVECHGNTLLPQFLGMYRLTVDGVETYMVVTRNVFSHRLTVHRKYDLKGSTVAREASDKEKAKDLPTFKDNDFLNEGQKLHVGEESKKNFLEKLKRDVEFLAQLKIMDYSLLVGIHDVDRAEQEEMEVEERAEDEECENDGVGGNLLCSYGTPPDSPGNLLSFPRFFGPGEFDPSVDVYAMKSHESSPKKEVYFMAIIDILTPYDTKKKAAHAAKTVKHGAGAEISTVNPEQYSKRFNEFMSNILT
Conditions: kinase PIP5K2B; for remaining activity at 1 µM: read-out: % of control at 1 µM.

For experiment [8], the target named is T8, panel of 442 kinases (Homo sapiens, UniProt P04049).
T8 construct: purchased Ambit Biosciences (scanMAXX KINOMEscan)
T8 sequence (P04049 whole entry): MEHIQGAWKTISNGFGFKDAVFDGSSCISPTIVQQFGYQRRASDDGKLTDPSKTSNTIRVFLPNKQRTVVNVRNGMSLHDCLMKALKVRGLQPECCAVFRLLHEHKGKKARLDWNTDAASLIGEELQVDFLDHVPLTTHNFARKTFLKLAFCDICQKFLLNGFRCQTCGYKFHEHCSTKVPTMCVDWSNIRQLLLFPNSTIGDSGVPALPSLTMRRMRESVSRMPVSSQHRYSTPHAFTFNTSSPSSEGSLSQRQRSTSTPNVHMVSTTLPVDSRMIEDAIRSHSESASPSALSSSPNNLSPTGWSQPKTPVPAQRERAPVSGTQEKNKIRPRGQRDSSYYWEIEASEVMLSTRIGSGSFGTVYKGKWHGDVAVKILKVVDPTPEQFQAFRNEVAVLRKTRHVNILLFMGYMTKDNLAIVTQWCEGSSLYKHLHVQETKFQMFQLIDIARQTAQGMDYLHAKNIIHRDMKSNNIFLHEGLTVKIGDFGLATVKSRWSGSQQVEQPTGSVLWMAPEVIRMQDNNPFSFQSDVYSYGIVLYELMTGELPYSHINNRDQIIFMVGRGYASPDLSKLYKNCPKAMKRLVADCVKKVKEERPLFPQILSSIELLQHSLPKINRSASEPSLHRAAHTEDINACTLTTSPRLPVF
The settings on record: kinase RAF1; for remaining activity at 1 µM: read-out: RAF1 (% of control at 1 µM).

Experiment [9] addresses T9, panel of 442 kinases (Homo sapiens, UniProt P10721, V559D/V654A).
T9 construct: purchased Ambit Biosciences (scanMAXX KINOMEscan)
Conditions: kinase KIT(V559D,V654A); for remaining activity at 1 µM: read-out: % of control at 1 µM.

Experiment [10] concerns the target T10, panel of 442 kinases (Homo sapiens, UniProt P37023).
T10 construct: purchased Ambit Biosciences (scanMAXX KINOMEscan)
Conditions: ACVRL1; for remaining activity at 1 µM: read-out: % of control at 1 µM.

Experiment [11] addresses T11, panel of 442 kinases (Homo sapiens, UniProt Q13153).
T11 construct: purchased Ambit Biosciences (scanMAXX KINOMEscan)
Conditions: kinase PAK1; for remaining activity at 1 µM: read-out: % of control at 1 µM.

For experiment [12], the target named is T12, panel of 442 kinases (Homo sapiens, UniProt P54646).
T12 construct: purchased Ambit Biosciences (scanMAXX KINOMEscan)
T12 sequence (P54646 whole entry): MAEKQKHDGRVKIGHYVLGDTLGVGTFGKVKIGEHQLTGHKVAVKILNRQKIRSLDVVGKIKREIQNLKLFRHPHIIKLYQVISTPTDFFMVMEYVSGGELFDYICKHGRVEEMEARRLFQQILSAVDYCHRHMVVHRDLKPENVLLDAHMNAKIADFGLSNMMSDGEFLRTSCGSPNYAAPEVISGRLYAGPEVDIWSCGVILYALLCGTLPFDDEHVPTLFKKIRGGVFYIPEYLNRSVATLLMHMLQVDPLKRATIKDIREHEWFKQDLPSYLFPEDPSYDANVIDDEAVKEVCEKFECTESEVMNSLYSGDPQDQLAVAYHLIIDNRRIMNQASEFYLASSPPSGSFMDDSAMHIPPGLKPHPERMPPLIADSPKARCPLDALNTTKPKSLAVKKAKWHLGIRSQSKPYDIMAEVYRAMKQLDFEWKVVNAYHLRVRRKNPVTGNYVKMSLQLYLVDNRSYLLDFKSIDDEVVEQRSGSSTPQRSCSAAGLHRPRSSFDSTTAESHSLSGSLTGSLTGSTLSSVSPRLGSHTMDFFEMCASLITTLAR
Conditions: AMPK-alpha2; for remaining activity at 1 µM: read-out: % of control at 1 µM.

The target of experiment [13] is T13, panel of 442 kinases (Homo sapiens, UniProt O95819).
T13 construct: purchased Ambit Biosciences (scanMAXX KINOMEscan)
T13 sequence (O95819 whole entry): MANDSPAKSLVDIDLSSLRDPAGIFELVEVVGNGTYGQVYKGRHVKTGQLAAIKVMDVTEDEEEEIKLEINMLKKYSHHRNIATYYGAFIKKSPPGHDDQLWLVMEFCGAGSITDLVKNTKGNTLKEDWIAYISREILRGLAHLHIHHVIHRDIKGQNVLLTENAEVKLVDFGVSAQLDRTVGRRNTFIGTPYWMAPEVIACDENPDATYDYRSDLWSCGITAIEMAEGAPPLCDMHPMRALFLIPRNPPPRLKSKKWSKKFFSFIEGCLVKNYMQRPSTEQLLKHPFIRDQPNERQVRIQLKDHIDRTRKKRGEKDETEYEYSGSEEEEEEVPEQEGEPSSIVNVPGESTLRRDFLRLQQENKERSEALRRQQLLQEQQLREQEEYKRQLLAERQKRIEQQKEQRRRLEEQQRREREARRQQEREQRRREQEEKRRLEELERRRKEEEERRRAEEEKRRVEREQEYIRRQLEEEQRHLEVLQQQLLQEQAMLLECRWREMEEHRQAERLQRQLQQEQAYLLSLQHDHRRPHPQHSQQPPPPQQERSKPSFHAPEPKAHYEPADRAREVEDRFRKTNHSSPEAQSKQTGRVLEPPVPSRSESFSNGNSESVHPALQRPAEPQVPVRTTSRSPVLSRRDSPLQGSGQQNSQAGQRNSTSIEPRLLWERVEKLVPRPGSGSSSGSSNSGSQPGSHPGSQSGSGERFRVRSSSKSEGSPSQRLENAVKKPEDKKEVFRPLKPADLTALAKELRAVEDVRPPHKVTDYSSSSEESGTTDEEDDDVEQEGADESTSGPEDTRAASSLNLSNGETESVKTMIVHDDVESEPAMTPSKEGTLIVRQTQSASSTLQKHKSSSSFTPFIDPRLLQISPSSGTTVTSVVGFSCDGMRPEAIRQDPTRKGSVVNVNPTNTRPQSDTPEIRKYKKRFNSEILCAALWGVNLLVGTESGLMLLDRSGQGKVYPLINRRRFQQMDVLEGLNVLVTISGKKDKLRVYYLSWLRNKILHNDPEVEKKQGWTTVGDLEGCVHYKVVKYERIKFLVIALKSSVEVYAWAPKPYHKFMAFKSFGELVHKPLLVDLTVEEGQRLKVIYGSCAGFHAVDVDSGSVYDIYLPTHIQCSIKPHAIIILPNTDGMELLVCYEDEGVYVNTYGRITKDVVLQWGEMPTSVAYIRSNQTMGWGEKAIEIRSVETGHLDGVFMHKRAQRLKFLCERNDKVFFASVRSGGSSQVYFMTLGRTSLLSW
Conditions: kinase MAP4K4; for remaining activity at 1 µM: read-out: % of control at 1 µM.

Experiment [14] deals with T14, panel of 442 kinases (Homo sapiens, UniProt P35590).
T14 construct: purchased Ambit Biosciences (scanMAXX KINOMEscan)
The settings on record: kinase TIE1; for remaining activity at 1 µM: read-out: TIE1 (% of control at 1 µM).

For experiment [15], the target named is T15, panel of 442 kinases (Homo sapiens, UniProt P50613).
T15 construct: purchased Ambit Biosciences (scanMAXX KINOMEscan)
T15 sequence (P50613 whole entry): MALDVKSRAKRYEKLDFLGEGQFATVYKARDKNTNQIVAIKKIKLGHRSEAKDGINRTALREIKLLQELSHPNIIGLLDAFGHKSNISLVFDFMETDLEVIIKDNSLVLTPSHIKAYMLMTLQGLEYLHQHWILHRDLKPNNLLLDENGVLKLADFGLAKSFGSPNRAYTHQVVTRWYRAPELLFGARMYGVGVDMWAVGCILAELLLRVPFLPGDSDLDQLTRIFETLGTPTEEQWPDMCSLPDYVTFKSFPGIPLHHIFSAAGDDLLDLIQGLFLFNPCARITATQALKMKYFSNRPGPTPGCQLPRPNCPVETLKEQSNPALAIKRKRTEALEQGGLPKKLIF
Conditions: CDK7; for remaining activity at 1 µM: read-out: % of control at 1 µM.

Setting [16] is: 10 µM, read-out: % of control at 10 µM.

T5 sequence (Q9HCP0 whole entry): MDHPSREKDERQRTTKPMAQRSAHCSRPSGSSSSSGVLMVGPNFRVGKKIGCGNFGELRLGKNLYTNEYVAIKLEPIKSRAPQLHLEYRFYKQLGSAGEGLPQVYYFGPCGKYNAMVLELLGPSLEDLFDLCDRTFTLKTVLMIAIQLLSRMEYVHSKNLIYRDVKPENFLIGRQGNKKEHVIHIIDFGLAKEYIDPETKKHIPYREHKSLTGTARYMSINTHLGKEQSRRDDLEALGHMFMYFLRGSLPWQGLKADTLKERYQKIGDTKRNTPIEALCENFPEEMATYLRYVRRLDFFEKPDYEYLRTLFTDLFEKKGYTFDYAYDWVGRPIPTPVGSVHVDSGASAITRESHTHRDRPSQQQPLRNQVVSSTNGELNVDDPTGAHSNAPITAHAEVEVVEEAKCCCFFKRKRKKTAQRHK
T9 sequence (P10721 26-976 V559D/V654A): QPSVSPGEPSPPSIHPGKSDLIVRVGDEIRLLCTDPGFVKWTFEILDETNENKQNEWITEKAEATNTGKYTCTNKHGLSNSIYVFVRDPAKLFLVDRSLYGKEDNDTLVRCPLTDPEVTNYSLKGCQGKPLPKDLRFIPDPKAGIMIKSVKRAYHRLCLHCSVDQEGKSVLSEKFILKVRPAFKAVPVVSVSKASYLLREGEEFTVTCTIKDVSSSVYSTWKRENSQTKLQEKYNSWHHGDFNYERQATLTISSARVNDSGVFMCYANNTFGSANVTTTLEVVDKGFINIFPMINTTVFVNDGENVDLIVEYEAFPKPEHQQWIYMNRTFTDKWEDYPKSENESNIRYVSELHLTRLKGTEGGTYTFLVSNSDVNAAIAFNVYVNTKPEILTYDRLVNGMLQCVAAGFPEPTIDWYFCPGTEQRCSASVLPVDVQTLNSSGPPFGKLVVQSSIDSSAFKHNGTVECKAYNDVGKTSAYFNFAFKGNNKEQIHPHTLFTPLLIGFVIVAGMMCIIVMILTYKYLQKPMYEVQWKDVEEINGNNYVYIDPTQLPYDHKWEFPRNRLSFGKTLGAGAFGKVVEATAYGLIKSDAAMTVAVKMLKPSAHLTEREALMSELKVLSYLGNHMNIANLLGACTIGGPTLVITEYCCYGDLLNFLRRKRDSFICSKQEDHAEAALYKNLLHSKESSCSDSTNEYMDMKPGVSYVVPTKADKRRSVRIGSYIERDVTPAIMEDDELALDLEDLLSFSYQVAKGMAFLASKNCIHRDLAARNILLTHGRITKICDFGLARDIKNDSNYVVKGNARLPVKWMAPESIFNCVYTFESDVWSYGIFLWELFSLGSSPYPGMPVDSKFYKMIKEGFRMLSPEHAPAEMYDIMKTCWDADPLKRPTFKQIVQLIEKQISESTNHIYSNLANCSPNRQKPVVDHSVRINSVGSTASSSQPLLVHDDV

Take `Nc1cc(C(F)(F)F)c(-c2cc(N3CCOCC3)nc(N3CCOCC3)n2)cn1` [Buparlisib]: the remaining activity at 1 µM on panel of 442 kinases [1] was 59%; at panel of 442 kinases [2], 78%; on panel of 442 kinases [3], 100%; on panel of 442 kinases [4] it was 100%; on panel of 442 kinases [5], 95%; on panel of 442 kinases [6], 100%. The remaining activity at 1 µM on panel of 442 kinases [7] turned out to be 84%; at panel of 442 kinases [8] it was 100%; on panel of 442 kinases [9], 100%; at panel of 442 kinases [10] it was 84%; at panel of 442 kinases [11] it was 100%; on panel of 442 kinases [12], 100%. Moreover, the remaining activity at 1 µM at panel of 442 kinases [13] is 100%; on panel of 442 kinases [14] it was 96%; at panel of 442 kinases [15], 93%. In addition, the remaining activity at 10 µM was 40% on panel of 442 kinases [1] (setting [16]); 69% on panel of 442 kinases [2] (setting [16]); 99% at panel of 442 kinases [3] (setting [16]); 100% at panel of 442 kinases [4] (setting [16]); 95% on panel of 442 kinases [5] (setting [16]); 100% at panel of 442 kinases [6] (setting [16]). In addition, the remaining activity at 10 µM came out at 100% on panel of 442 kinases [7] (setting [16]); 100% on panel of 442 kinases [8] (10 µM, read-out: RAF1 (% of control at 10 µM)); 98% on panel of 442 kinases [9] (setting [16]); 100% on panel of 442 kinases [10] (setting [16]); 96% at panel of 442 kinases [11] (setting [16]); 100% on panel of 442 kinases [12] (setting [16]). For the same molecule, the remaining activity at 10 µM at panel of 442 kinases [13] (setting [16]) turned out to be 100%; on panel of 442 kinases [14] (10 µM, read-out: TIE1 (% of control at 10 µM)), 100%; at panel of 442 kinases [15] (setting [16]), 100%.

`Cn1c(=O)n(-c2ccc(C(C)(C)C#N)cc2)c2c3cc(-c4cnc5ccccc5c4)ccc3ncc21` [Dactolisib, 2-methyl-2-[4-(3-methyl-2-oxo-8-quinolin-3-yl-2,3-dihydroimidazo[4,5-c]quinolin-1-yl)-phenyl] propionitrile]: the remaining activity at 1 µM on panel of 442 kinases [1] stood at 88%; at panel of 442 kinases [2], 73%; at panel of 442 kinases [3], 89%; at panel of 442 kinases [4], 100%; at panel of 442 kinases [5], 67%; on panel of 442 kinases [6], 100%. Moreover, the remaining activity at 1 µM at panel of 442 kinases [7] was 100%; on panel of 442 kinases [8], 94%; at panel of 442 kinases [9] it was 84%; at panel of 442 kinases [10], 94%; on panel of 442 kinases [11] it was 100%; on panel of 442 kinases [12] it was 100%. Also, the remaining activity at 1 µM on panel of 442 kinases [13] is 73%; on panel of 442 kinases [14], 100%; at panel of 442 kinases [15], 57%.

For `FC(F)c1nc2ccccc2n1-c1nc(N2CCOCC2)nc(N2CCOCC2)n1` [ZSTK474, 2-(difluoromethyl)-1-[4,6-di(4-morpholinyl)-1,3,5-triazin-2-yl]-1H-benzimidazole], the remaining activity at 1 µM was 61% on panel of 442 kinases [1]; 100% at panel of 442 kinases [2]; 100% at panel of 442 kinases [3]; 85% on panel of 442 kinases [4]; 81% on panel of 442 kinases [5]; 100% at panel of 442 kinases [6]. In addition, the remaining activity at 1 µM on panel of 442 kinases [7] was 100%; at panel of 442 kinases [8] it was 73%; on panel of 442 kinases [9] it was 95%; on panel of 442 kinases [10], 100%; at panel of 442 kinases [11] it was 100%; on panel of 442 kinases [12], 100%. Besides, the remaining activity at 1 µM on panel of 442 kinases [13] came to 93%; on panel of 442 kinases [14], 88%; at panel of 442 kinases [15] it was 68%.

As to `COc1ncc(-c2ccc3nccc(-c4ccnnc4)c3c2)cc1NS(=O)(=O)c1ccc(F)cc1F` [Omipalisib], the remaining activity at 1 µM stood at 100% at panel of 442 kinases [2]; 100% at panel of 442 kinases [3]; 100% on panel of 442 kinases [4]; 100% on panel of 442 kinases [5]; 69% at panel of 442 kinases [6]; 100% on panel of 442 kinases [7]. Moreover, the remaining activity at 1 µM worked out at 100% at panel of 442 kinases [8]; 100% on panel of 442 kinases [9]; 100% at panel of 442 kinases [10]; 55% at panel of 442 kinases [11]; 99% at panel of 442 kinases [12]; 100% at panel of 442 kinases [13]. For the same molecule, the remaining activity at 1 µM at panel of 442 kinases [14] and at panel of 442 kinases [15] was 100% throughout.
